We go through one molecule from patent US4352885A, “Preparation of a novel NADP linked alcohol-aldehyde/ketone oxidoreductase from thermophilic anaerobic bacteria for analytical and commercial use” (Wisconsin Alumni Research Foundation, priority 1980, dated 1982).

In series [1] the target is T1, NADP linked alcohol dehydrogenase (alcohol-aldehyde/ketone oxidoreductase) (Thermoanaerobacter brockii, UniProt P14941).
T1 construct: of the T. brockii enzyme preparation with various alcohols and carbonyl compounds; made in house; host or cells: T. brockii itself (native host; partially purified enzyme)
T1 sequence (P14941 1-352): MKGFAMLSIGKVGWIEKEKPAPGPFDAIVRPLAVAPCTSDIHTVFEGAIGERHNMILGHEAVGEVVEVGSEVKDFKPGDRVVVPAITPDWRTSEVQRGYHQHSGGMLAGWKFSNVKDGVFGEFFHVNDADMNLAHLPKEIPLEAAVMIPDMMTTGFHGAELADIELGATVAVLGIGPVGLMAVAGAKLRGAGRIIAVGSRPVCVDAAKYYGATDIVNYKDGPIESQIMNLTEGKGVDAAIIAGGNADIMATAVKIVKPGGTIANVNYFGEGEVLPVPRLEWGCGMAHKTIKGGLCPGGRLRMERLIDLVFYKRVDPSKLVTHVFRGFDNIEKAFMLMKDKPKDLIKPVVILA
In words: Specific activity of partially purified NADP linked alcohol dehydrogenase with alcohols and carbonyl compounds (absorbance at 334 nm). Format: biochemical, Thermoanaerobium brockii. The note with it: saturating substrate (0.2-0.5 M alcohol or ketone, 10 mM acetaldehyde); 0.5 mM NADP or 0.2 mM NADPH; 0.1 M Tris-Cl pH 7.8.

The target of series [2] is T2, heat treated T. brockii extract (Thermoanaerobacter brockii, UniProt P14941).
T2 construct: made in house; host or cells: T. brockii itself (native host; heat treated crude extract)
T2 sequence (P14941 1-352): T1 sequence (P14941 1-352)
Kind of series: Reduction of 2-pentanone by heat treated extract with NADPH regenerating system (gas chromatographic analysis). Format: biochemical, Thermoanaerobium brockii. The note with it: 3 g in 150 ml; 0.2 v/v isopropanol, 0.3 mM NADP; 40 hr. at 37° C. As to the method: As illustrated in the following reaction diagram, an NADPH regenerating system can be initiated with isopropanol as the electron donor for the reduction of 2-pentanone. [drawing 1] A 150 ml solution was prepared containing 50 mM Tris-HCl (pH 7.8), 0.2 v/v isopropanol, 2 mM dithiothreitol, 0.3 mM NADP and 3 g 2-pentanone. After the solution was degassed with N2, sufficient heat treated T. brockii extract was added to yield an activity of 1 U/min./ml. The solution was incubated in a stoppered vessel for 40 hr. at 37° C. Gas chromatographic analysis indicated a 90% conversion of 2-pentanone to the corresponding alcohol. The mixture was extracted with diethyl ether and then fractionally distilled. The fractions were analyzed by conventional gas chromatographic and NMR (nuclear magnetic resonance) methods. The pure 2-pentanol fraction yielded a dextrorotatory optical rotation which corresponded to that of a highly optically enriched compound. The result in optical purity was dependent on incubation temperature and initial rate of isopropanol to 2-pentanone. Decreasing the temperature from 37° C. to 25° C. and the 2-pentanone concentration from 3 grams/150 ml to 0.6 grams/150 ml, increases the d/l bar ratio from 6/l to 9/l for the resulting 2-pentanol.

Regarding `CCCC(C)=O` [CH3 COCH2 CH2 CH3, 2-pentanone], the “Activity V/mg. at 60° C.” value in series [1] came to 4.2 μ Mole/Min./Mg Protein. Further, the “Conversion to the corresponding alcohol” value in series [2] is recorded as 90%.
